According to patent US20220211654A1, “MATERIALS AND METHODS FOR TREATING AGE-RELATED MACULAR DEGENERATION” (THE REGENTS OF THE UNIVERSITY OF CALIFORNIA, priority 2019, published 2022):
Values belong to the compound of their own block, whether it stands above or below them.

Columns and labels:
[1] = system: AMD ARPE-19 transmitochondrial cybrid cells; assay: Mitochondrial membrane potential (JC-1) assay; format: cell-based, human; details: AMD cybrids; fenofibrate 50 μM; compared to untreated
Procedure: Mitochondrial membrane potential (JC-1) assay: The JC-1 assay uses a unique cationic dye i.e., 5,5′,6,6′-tetrachloro-1,1′,3,3′-tetraethylbenzimidazolylcarbocyanine iodide, to detect loss of mitochondrial membrane potential. JC-1 1× reagent was prepared by diluting 100× JC-1 reagent in assay buffer to 1:100 dilutions. […] 1× JC-1 reagent was added to cells and incubated for 15 min at 37° C. JC-1 reagent in the wells was then replaced with DPBS and fluorescence was measured as follows: Red fluorescence (Live cells): Excitation 550 nm and Emission 600 nm; Green fluorescence (Apoptotic cells): Excitation 485 nm and Emission 535 nm. Ratio of Red/Green was used for analysis. Lower ratio corresponded to higher apoptotic/dead cell number.

[2] = system: AMD ARPE-19 transmitochondrial cybrid cells; assay: MitoSOX assay (mitochondrial superoxide); format: cell-based, human; details: AMD cybrids, fenofibrate 50 μM
Procedure: MitoSOX assay: The fluorogenic MitoSOX Red dye (Cat. #M36008, Invitrogen, Grand Island, N.Y., USA) is a live-cell permeant reagent that detects mitochondrial superoxide in cells. MitoSOX Red reagent oxidized by superoxide has red fluorescence that can be quantified. AMD cybrids were plated in 24-well tissue culture plates. Stock solution of 5 mM MitoSOX reagent was diluted with HBSS (Hank's balanced salt solution) buffer to obtain a 5 μM working solution. Cells were treated with 5 μM MitoSOX reagent and incubated for 10 min at 37° C. Cells were then washed with HBSS buffer, and fluorescence was measured at excitation/emission maxima of 510/580 nm.

[3] = system: AMD ARPE-19 transmitochondrial cybrid cells; assay: CellLight Mitochondrial GFP staining and confocal microscopy; format: cell-based, human; details: fenofibrate 50 μM
Procedure: CellLight Mitochondrial GFP staining and Confocal microscopy: Staining with CellLight Mitochondrial GFP probe (Cat. #C10600, Thermo Fisher Scientific, MA, USA) and confocal microscopy were performed as described previously (74). Cells were plated in 4-well tissue culture chamber slides, stained with CellLight mtGFP for 24 hr and incubated overnight at 37° C. The cells were washed with 1×TBS (Tris buffered saline), fixed in paraformaldehyde and mounted in DAPI. Confocal z-stack images were captured using the LSM-700 Confocal microscope (Zeiss, Thornwood, N.Y., USA). Images were quantified using ZEN 2 lite software (Zeiss).
RPE cells were transduced with CellLight reagent which is a GFP-E1 alpha pyruvate dehydrogenase leader peptide construct with a mammalian promoter. This fluorescent baculoviral fusion construct provides precise targeting to mitochondria.

[4] = system: AMD ARPE-19 transmitochondrial cybrid cells; assay: Cell viability assay (MTT assay); details: for cell viability, Mean ± SEM: AMD UN = 1
Procedure: All cybrids used in this study belonged to the ‘H’ mitochondrial DNA haplogroup. […] Stock solutions of 20 mM kaempferol and 10 mM telmisartan were prepared in DMSO and were diluted in culture media to obtain the following working concentrations: kaempferol at 5 μM, 10 μM, and 20 μM; telmisartan at 2.5 μM, 5 μM, and 10 μM. Cell viability assay (MTT assay): The numbers of viable cells were measured using the MTT (3-(4,5-dimethylthiazol-2-yl)-2,5-diphenyltetrazolium bromide) assay. […] Cells were incubated at 37° C. for 1 h, followed by addition of DMSO. Absorbance was measured at 570 nm and background absorbance measured at 630 nm. Normalized absorbance values were obtained by subtracting background absorbance from signal absorbance. The colorimetric signal obtained was proportional to the cell number.

[5] = system: PGC-1α; assay: qRT-PCR gene expression of PGC-1α in AMD RPE cybrid cells; format: cell-based, human; details: 72 hr, AMD UN = 1
Procedure: (§1) Quantitative Real-Time PCR: RNA extraction, cDNA synthesis, and qRT-PCR analysis were performed as described previously (73). QuantiTect Primer Assays were used to study the expression of Caspase-3 gene (Cat. #QT00023947, Qiagen, Germantown, Md.), BAX gene (Cat. #QT00031192, Qiagen), HIF1α gene (Cat. #QT00083664, Qiagen), CFH gene (Cat. #QT00001624, Qiagen), and SOD2 gene (Cat. #QT01008693, Qiagen). KiCqStart® SYBR® green primers were used to examine the expression of PGC-1a, NRF-1, NRF-2, PPAR-α, PPAR-γ, VEGF, IL-18, and IFNB1 genes (Cat. #kspq12012, Sigma, St. Louis, Mo.). Specific housekeeper genes used were HPRT1 (Cat. #QT00059066, Qiagen), ALAS variant 1 (Cat. #QT01160467, Qiagen), and HMBS (Cat. #QT00014462). TaqMan gene expression master mix (Cat. #4369016, Life Technologies) and TaqMan gene expression assays were used to examine the expression of the MT-RNR2 gene (Assay ID: Hs02596860_s1, Life Technologies), for which GAPDH (Assay ID: Hs02786624_g1, Life Technologies) was used as a housekeeper gene. Data analysis was performed using ΔΔCt method which was calculated by subtracting ΔCt of the AMD group from ΔCt of the normal group. ΔCt was the difference between the Cts (threshold cycles) of the target gene and Cts of the housekeeper gene (reference gene). Fold change was calculated using the following formula: Fold change=2^ΔΔct.

[6] = system: SOD2; assay: qRT-PCR gene expression of SOD2 in AMD RPE cybrid cells; format: cell-based, human; details: 72 hr, AMD UN = 1
Procedure: as §1

[7] = system: Caspase-3; assay: qRT-PCR gene expression of Caspase-3 in AMD RPE cybrid cells; format: cell-based, human; details: 72 hr; for Caspase-3 gene expression, Mean ± SEM: AMD UN = 1
Procedure: as §1

[8] = system: IL-18; assay: qRT-PCR gene expression of IL-18 in AMD RPE cybrid cells; format: cell-based, human; details: 72 hr, AMD UN = 1
Procedure: as §1

[9] = system: VEGF; assay: qRT-PCR gene expression of VEGF in AMD RPE cybrid cells; format: cell-based, human; details: 72 hr; for VEGF gene expression, Mean ± SEM: AMD UN = 1
Procedure: as §1

[10] = system: esterase; assay: fenofibrate to fenofibrate* conversion (first pass) and its block by esterase inhibitors; details: co-administered with fenofibrate
[11] = only kaempferol 20 μM, compared to untreated AMD cybrids

SMILES: CC(C)OC(=O)C(C)(C)Oc1ccc(C(=O)c2ccc(Cl)cc2)cc1 [fenofibrate]
increased mitochondrial membrane potential (JC-1 assay) [1]: 116%
mitochondrial superoxides, MitoSOX fluorescence (mean±SEM) ([2]; AMD UN = 1): 0.77±0.04
lower amount of mitochondrial superoxides (MitoSOX assay) ([2]; compared to untreated): 23%
mtGFP fluorescence intensity (mean±SEM) ([3]; AMD UN = 1): 2.73±0.39
increase in mtGFP fluorescence intensity ([3]; compared to untreated): 173%
cell viability, Mean ± SEM ([4]; 48 hr, fenofibrate 50 μM only): 1.33 ± 0.09
cell viability, Mean ± SEM ([4]; 72 hr, fenofibrate 50 μM only): 1.37 ± 0.07
higher cell viability ([4]; AMD cells, fenofibrate 50 μM, compared to untreated): 51%

block of conversion of fenofibrate to fenofibrate* [10]: largely block conversion to fenofibrate*
SMILES: O=c1c(O)c(-c2ccc(O)cc2)oc2cc(O)cc(O)c12 [kaempferol, 3,5,7-trihydroxy-2-(4-hydroxyphenyl)-4H-1-benzopyran-4-one]
PGC-1a gene expression, Mean ± SEM ([5]; kaempferol 20 μM only): 1.82 ± 0.57
SOD2 gene expression, Mean ± SEM ([6]; kaempferol 20 μM only): 0.88 ± 0.22
Caspase-3 gene expression, Mean ± SEM ([7]; kaempferol 20 μM only): 0.74 ± 0.045
Caspase-3 downregulation [7, 11]: 26%
IL-18 gene expression, Mean ± SEM ([8]; kaempferol 20 μM only): 0.78 ± 0.13
VEGF gene expression, Mean ± SEM ([9]; kaempferol 20 μM only): 0.42 ± 0.16
VEGF downregulation [9, 11]: 58%
cell viability, Mean ± SEM ([4]; 48 hr, kaempferol 20 μM only): 1.037 ± 0.1413
cell viability, Mean ± SEM ([4]; 72 hr, kaempferol 20 μM only): did not show any difference in cell viability
cell viability, Mean ± SEM ([4]; 72 hr, kaempferol 20 μM only, listed as kempferol): 1.259 ± 0.1060

block of conversion of fenofibrate to fenofibrate* [10]: largely block conversion to fenofibrate*
SMILES: CCCc1nc2c(C)cc(-c3nc4ccccc4n3C)cc2n1Cc1ccc(-c2ccccc2C(=O)O)cc1 [telmisartan]
PGC-1a gene expression, Mean ± SEM ([5]; telmisartan 10 μM only): 1.40 ± 0.48
SOD2 gene expression, Mean ± SEM ([6]; telmisartan 10 μM only): 1.71 ± 0.46
Caspase-3 gene expression, Mean ± SEM ([7]; telmisartan 10 μM only): 0.86 ± 0.06
IL-18 gene expression, Mean ± SEM ([8]; telmisartan 10 μM only): 0.71 ± 0.25
VEGF gene expression, Mean ± SEM ([9]; telmisartan 10 μM only): 0.52 ± 0.19
cell viability, Mean ± SEM ([4]; 48 hr, telmisartan 10 μM only): 0.95 ± 0.11
cell viability, Mean ± SEM ([4]; 72 hr, telmisartan 10 μM only): 0.99 ± 0.09
